# From ChEMBL document CHEMBL1201862, “PubChem BioAssay data set” (2004)
#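 Assay format: 96-well plates, 48-hour exposure. GI50 is the concentration that inhibits growth by half.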 Calls of active or inactive are those of the source. No stated cut-off is given here; in the data, active = GI50 up to about 1.1 µM and inactive = higher.
# Columns and labels:
# Assay in all cases: NCI anticancer screen, dose series, 48 h
# CAKI-1 = test system: CAKI-1
# COLO 205 = test system: COLO 205
# EKVX = test system: EKVX
# HCC 2998 = test system: HCC 2998
# HCT-15 = test system: HCT-15
# HOP-62 = test system: HOP-62
# IGROV-1 = test system: IGROV-1
# K562 = test system: K562
# MOLT-4 = test system: MOLT-4
# NCI-H23 = test system: NCI-H23
# OVCAR-8 = test system: OVCAR-8
# SK-MEL-2 = test system: SK-MEL-2
# SW-620 = test system: SW-620
# U-251 = test system: U-251
# SK-MEL-28 = test system: SK-MEL-28
Structure (SMILES),GI50 (CAKI-1),GI50 (COLO 205),GI50 (EKVX),GI50 (HCC 2998),GI50 (HCT-15) [µM],GI50 (HOP-62),GI50 (IGROV-1),GI50 (K562),GI50 (MOLT-4),GI50 (NCI-H23),GI50 (OVCAR-8),GI50 (SK-MEL-2),GI50 (SW-620),GI50 (U-251),GI50 (SK-MEL-28)
Nn1c(S)nnc1N/N=C1/C(=O)Nc2c(Cl)cc(Cl)cc21,69 µM (inactive),> 100 µM (inactive),> 100 µM (inactive),58.2 µM (inactive),> 100,50.4 µM (inactive),92.9 µM (inactive),31.2 µM (inactive),37.2 µM (inactive),> 100 µM (inactive),> 100 µM (inactive),> 100 µM (inactive),> 100 µM (inactive),> 100 µM (inactive),
Nc1ccc2nc(Nc3ccc(Cl)c(Cl)c3)cnc2c1,28.8 µM (inactive),19.4 µM (inactive),26.8 µM (inactive),16.1 µM (inactive),16.6,18.9 µM (inactive),,19 µM (inactive),1.6 µM (inactive),22.4 µM (inactive),26.2 µM (inactive),20 µM (inactive),17.9 µM (inactive),19.4 µM (inactive),17.6 µM (inactive)
C=CCNC(=S)OCCCCCCCCCC,19.1 µM (inactive),,23.8 µM (inactive),17.7 µM (inactive),15.8,21.7 µM (inactive),20 µM (inactive),13.8 µM (inactive),13.9 µM (inactive),19.8 µM (inactive),17.1 µM (inactive),12.3 µM (inactive),18.7 µM (inactive),16.7 µM (inactive),23.6 µM (inactive)
CC1OC(n2ccc(=O)[nH]c2=O)C=C(OC(=O)c2ccccc2)C1=O (configuration not stated),42.6 µM (inactive),> 100 µM (inactive),> 100 µM (inactive),,> 100,71.9 µM (inactive),> 100 µM (inactive),> 100 µM (inactive),> 100 µM (inactive),36.6 µM (inactive),45 µM (inactive),,64.6 µM (inactive),29 µM (inactive),48.6 µM (inactive)
CC(=O)OCC1OC(N=[N+]=[N-])C(OC(C)=O)C(OC(C)=O)C1OC1OC(COC(C)=O)C(OC(C)=O)C(OC(C)=O)C1OC(C)=O (configuration not stated),> 100 µM (inactive),> 100 µM (inactive),> 100 µM (inactive),> 100 µM (inactive),> 100,,> 100 µM (inactive),> 100 µM (inactive),> 100 µM (inactive),> 100 µM (inactive),> 100 µM (inactive),> 100 µM (inactive),> 100 µM (inactive),> 100 µM (inactive),> 100 µM (inactive)
CN1CCc2c1nc(-c1ccccc1)c1c2N(C)CC1,28.1 µM (inactive),34.7 µM (inactive),> 100 µM (inactive),99.3 µM (inactive),66.4,43.8 µM (inactive),> 100 µM (inactive),25.4 µM (inactive),38.1 µM (inactive),55.7 µM (inactive),57.4 µM (inactive),> 100 µM (inactive),86.9 µM (inactive),> 100 µM (inactive),
CCCCCCCCCCCCCCCCCCCCCCC(=O)N[C@H]1CCc2cc(OC)c(OC)c(OC)c2-c2ccc(SC)c(=O)cc21,46.7 µM (inactive),12.8 µM (inactive),29.1 µM (inactive),25.5 µM (inactive),26.4,16.1 µM (inactive),49.1 µM (inactive),30.5 µM (inactive),27 µM (inactive),25.5 µM (inactive),26.5 µM (inactive),,30.3 µM (inactive),24.2 µM (inactive),84.5 µM (inactive)
